Reference: ChEMBL document CHEMBL4145592, “Synthesis of Phosphatidylserine and Its Stereoisomers: Their Role in Activation of Blood Coagulation” (ACS Med Chem Lett, 2018)
Activity calls are given as the source filed them. The rule behind the calls is not given here.

What was measured:
[1] = biological target: T1, Coagulation factor VII/tissue factor (Homo sapiens) (UniProt P08709+P13726); assay: (§1) Activation of full length recombinant human His-tagged tissue factor expressed in Escherichia coli BL21(DE3)/recombinant factor 7a (unknown origin) assessed as induction of coagulant factor-10a production using S-2765 as substrate measured for 2 mins in presence of phosphatidylcholine by colorimetric method relative to phosphatidylcholine alone
[2] = biological target: T1, Coagulation factor VII/tissue factor (Homo sapiens); assay: as §1, with “method” for “method relative to phosphatidylcholine alone”

| SMILES | fold change (FC) [1] | Activity [2] |
| --- | --- | --- |
| CCCCCCCC/C=C\CCCCCCCC(=O)OC[C@H](COP(=O)(O)OC[C@H](N)C(=O)O)OC(=O)CCCCCCC/C=C\CCCCCCCC | 6 | – |
| CCCCCCCC/C=C\CCCCCCCC(=O)OC[C@H](COP(=O)(O)OC[C@@H](N)C(=O)O)OC(=O)CCCCCCC/C=C\CCCCCCCC | – | Active |
| CCCCCCCC/C=C\CCCCCCCC(=O)OC[C@@H](COP(=O)(O)OC[C@@H](N)C(=O)O)OC(=O)CCCCCCC/C=C\CCCCCCCC | – | inactive |
| CCCCCCCC/C=C\CCCCCCCC(=O)OC[C@@H](COP(=O)(O)OC[C@H](N)C(=O)O)OC(=O)CCCCCCC/C=C\CCCCCCCC | 2 | – |
